Results on one compound are retold here after publication PMC8746798, “Evaluation of 2-Thioxoimadazolidin-4-one Derivatives as Potent Anti-Cancer Agents through Apoptosis Induction and Antioxidant Activation: In Vitro and In Vivo Approaches” (Molecules, 2021).

Holding throughout (assay type): cell-based, human
The test system of test [1] is HepG2 cells. Nature of the test: Annexin V-FITC/PI apoptosis/necrosis flow cytometry. From the text: (§1) Apoptotic cells were quantified using double staining with annexin V and PI on flow cytometry. […] The detailed methodology of flow cytometric analysis (annexin V/PI differential apoptosis/necrosis, DNA content–flow cytometry aided cell cycle) is provided in the Supplementary Materials.
(§2) Supplementary materials for detailed methodology
(§3) Evaluation of 2-thioxoimadazolidin-4-one Derivatives as Potent
(§4) Anti-cancer Agents Through Apoptosis Induction and Antioxi-dant Activation: In vitro and In vivo Approaches
(§5) Mohamed S. Nafie 1,*, Ahmed I. Khodair 2,*, Hebat Allah Y. Hassan 3, Noha M. Abd El-Fadeal 4, Hanin A. Bogari 5 , Sameh S. Elhady 6 and Safwat A. Ahmed 3,7,* […]
(§6) Apoptosis and necrosis cell populations are determined using Annexin V-FITC apop-tosis detection kit (Abcam Inc., Cambridge Science Park, Cambridge, UK) coupled with 2 fluorescent channels flowcytometry. […]
(§7) Then, cells are incubated in dark with 0.5 ml of Annexin V-FITC/PI solution for 30 min in dark at room temperature according to manufacturer protocol. After staining, cells are injected via ACEA Novocyte™ flowcytometer (ACEA Biosciences Inc., San Diego, CA, USA) and analyzed for FITC and PI fluorescent signals using FL1 and FL2 signal detector, respectively (λex/em 488/530 nm for FITC and λex/em 535/617 nm for PI). […]
In general terms: In flow cytometry, cells or beads pass a laser one at a time.

A further test has as its system HepG2 liver cancer cells. Nature of the test: MTT assay for cytotoxic screening, HepG2. To be noted: Homo sapiens, HepG2, 48 h, mean ± SE, n = 3. The protocol: The in vitro anti-cancer activity was assessed using the MTT assay. […] Staurosporine and 5-FU were used as reference drugs. HepG2 cells (1 × 10^4 cells/well, 96-well plate) were maintained in DMEM media supplemented with 2mML-glutamine (Lonza, Verviers, Belgium) and 10% FBS (Sigma, St. Louis, MO, USA), 1% Penicillin/Streptomycin (Lonza, Verviers, Belgium) according to the routine culture work. Cultures were incubated for 48 h with serial dilutions (0.01, 0.1, 1, 10, 100 µM) of the tested compounds. Finally, cell viability was determined by measuring the absorbance λ570 nm according to the following formula: % of cell viability = (A sapmple/A control) ×100, then IC50 calculation was calculated using GraphPad Prism 7 software.
In general terms: Tetrazolium assays rely on reduction of a dye to a coloured formazan, in cell work by metabolically active cells.

Test [2] deals with HepG2 cells. Nature of the test: DNA content flow cytometry cell cycle analysis. To be noted: HepG2, IC50 = 0.017 μM, 48 h; control 12.26%.
Description: as §1, §2, §3, §4, §5, §6, §7

Structures are written as SMILES.

Regarding `O=C1NC(=S)N(c2ccc(O)cc2)/C1=C/c1cccs1` [Compound 4, (E)-1-(4-Hydroxyphenyl)-5-(thiophen-2-ylmethylene)-2-thioxoimidazolidin-4-one], the “necrotic cells (Q1, AV−/PI+)” value in the test with HepG2 cells [1] (HepG2, IC50 = 0.017 μM, 48 h, control 1.05%) came out at 6.08%. For the same compound, the “apoptosis induction versus control” value with HepG2 cells [1] (HepG2, 11.42% compared to 0.59% in control) is reported as 19.35 fold. Also, inhibition in the test with HepG2 liver cancer cells was half-maximal at 17 ± 4 nM (IC50). In addition, the “% cells in G2/M phase” value in the test on HepG2 cells [2] is reported as 21.15%.
